Assay results taken from US10766869B2, “Triazoles for the treatment of demyelinating dieases” (Vertex Pharmaceuticals Incorporated, priority 2015, dated 2020).
Read-outs that look alike come from different tables or passages of the source.

Test system: primary rat mixed cortical cells
Assay: In vitro myelination assay (MBP positive myelin strands, fold myelin pixels above background)
Type: cell-based
Conditions: Rattus norvegicus; for fold induction at 1 µM: 1.0 μM compound; for fold induction at 10 µM: 10.0 μM compound
In short: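 P1 rat cortical cells (neurons, OPCs, oligodendrocytes, astrocytes, microglia) were cultured 14 days at 37 °C with compound, with half-medium changes containing 1× compound on days 6 and 10. Fixed cells were immunostained for MBP and imaged at 10×. Total MBP myelin pixels per well were expressed as fold above no-compound baseline at 1.0 μM and 10.0 μM.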

[1] = relative to baseline of no added compound, read-out: Fold myelin pixels above background
[2] = relative to baseline of no added compound, read-out: Fold myelin pixels above background, 1.0 μM
[3] = relative to baseline of no added compound, read-out: Fold myelin pixels above background, 10.0 μM
[4] = read-out: Fold myelin pixels above background relative to baseline of no added compound

Row | SMILES | fold induction at 1 µM [1] | fold induction at 10 µM [1] | fold induction at 1 µM [2] | fold induction at 10 µM [3] | other results
1 | Cc1cc(NCCC2CCCO2)cc(Nc2ncn(-c3cc(F)cc(F)c3)n2)c1 (stereo not shown) [Compound 496, N1-[1-(3,5-difluorophenyl)-1,2,4-triazol-3-yl]-5-methyl-N3-(2-tetrahydrofuran-2-ylethyl)benzene-1,3-diamine] | 100 to 1000 | 1 to 10 |  |  | 
2 | Cc1cc(Nc2ncn(-c3cc(F)cc(F)c3)n2)cc(N2CC(N3CCCCC3)C2)c1 [Compound 634, 1-(3,5-difluorophenyl)-N-[3-methyl-5-[3-(1-piperidyl)azetidin-1-yl]phenyl]-1,2,4-triazol-3-amine] | 10 to 100 | 10 to 100 |  |  | 
3 | CC(=O)N1CCN(c2cc(C)cc(Nc3ncn(-c4cc(F)cc(F)c4)n3)c2)CC1 [Compound 370, 1-[4-[3-[[1-(3,5-difluorophenyl)-1,2,4-triazol-3-yl]amino]-5-methyl-phenyl]piperazin-1-yl]ethanone] |  |  | 1000 to 10000 | 100 to 1000 | 
4 | COc1cccc(-n2cnc(Nc3cc(C)cc(N4CCN(C5COC5)CC4)c3)n2)c1 [Compound 86, 1-(3-methoxyphenyl)-N-[3-methyl-5-[4-(oxetan-3-yl)piperazin-1-yl]phenyl]-1,2,4-triazol-3-amine] |  |  | 100 to 1000 | 100 to 1000 | 
5 | Cc1cc(Nc2ncn(-c3ccccc3)n2)cc(N2CC(C)N(C)CC2C)c1 (stereo not shown) [Compound 419, N-[3-methyl-5-(2,4,5-trimethylpiperazin-1-yl)phenyl]-1-phenyl-1,2,4-triazol-3-amine] | 10 to 100 | ≤ 1 |  |  | 
6 | Fc1cc(F)cc(-n2cnc(Nc3cc(C(F)F)cc(N4CC(N5CCOCC5)C4)n3)n2)c1 [Compound 732, 4-(difluoromethyl)-N-[1-(3,5-difluorophenyl)-1,2,4-triazol-3-yl]-6-(3-morpholinoazetidin-1-yl)pyridin-2-amine] | 1 to 10 | 1 to 10 |  |  | 
7 | CCc1cc(Nc2ncn(-c3cccc(C#N)c3)n2)cc(N2CCN(C3COC3)CC2)c1 [Compound 734, 3-[3-[3-ethyl-5-[4-(oxetan-3-yl)piperazin-1-yl]anilino]-1,2,4-triazol-1-yl]benzonitrile] | 1 to 10 | ≤ 1 |  |  | 
8 | Cc1cc(Nc2ncn(-c3cc(F)cc(F)c3)n2)cc(N2CC[N+]([O-])(C3COC3)CC2)c1 [Compound 139, 1-(3,5-difluorophenyl)-N-[3-methyl-5-[4-(oxetan-3-yl)-4-oxido-piperazin-4-ium-1-yl]phenyl]-1,2,4-triazol-3-amine] |  |  | 100 to 1000 | 1 to 10 | 
9 | CC(C)(C)c1cc(Nc2ncn(-c3cnccn3)n2)cc(N2CCN(C3COC3)CC2)c1 [Compound 288, N-[3-tert-butyl-5-[4-(oxetan-3-yl)piperazin-1-yl]phenyl]-1-pyrazin-2-yl-1,2,4-triazol-3-amine] |  |  | 1000 to 10000 | 1000 to 10000 | 
10 | Cc1cc(Nc2ncn(-c3cc(F)ccc3F)n2)cc(N2CCNCC2)c1 [Compound 558, 1-(2,5-difluorophenyl)-N-(3-methyl-5-piperazin-1-yl-phenyl)-1,2,4-triazol-3-amine] | 10 to 100 | ≤ 1 |  |  | 
11 | Cc1cc(Nc2ncn(-c3cc(F)cc(F)c3)n2)cc(N2CCN(CCN3CCCC3)CC2)c1 [Compound 944, 1-(3,5-difluorophenyl)-N-[3-methyl-5-[4-(2-pyrrolidin-1-ylethyl)piperazin-1-yl]phenyl]-1,2,4-triazol-3-amine] |  |  |  |  | fold induction at 1 µM [4]: 1 to 10; fold induction at 10 µM [4]: ≤ 1
12 | Cc1cc(Nc2ncn(-c3cc(C)ccn3)n2)cc(N2CCN(C3COC3)CC2)c1 [Compound 54, N-[3-methyl-5-[4-(oxetan-3-yl)piperazin-1-yl]phenyl]-1-(4-methyl-2-pyridyl)-1,2,4-triazol-3-amine] |  |  | 10 to 100 | 100 to 1000 | 
13 | FC(F)c1cc(Nc2ncn(-c3ccccc3)n2)nc(N2CCN(C3COC3)CC2)c1 [Compound 526, 4-(difluoromethyl)-6-[4-(oxetan-3-yl)piperazin-1-yl]-N-(1-phenyl-1,2,4-triazol-3-yl)pyridin-2-amine] | 100 to 1000 | 10 to 100 |  |  | 
14 | CC(=O)N1CCCC(Nc2cc(C)cc(Nc3ncn(-c4ccccc4)n3)c2)C1 (stereo not shown) [Compound 115, 1-[3-[3-methyl-5-[(1-phenyl-1,2,4-triazol-3-yl)amino]anilino]-1-piperidyl]ethanone] |  |  | 100 to 1000 | 100 to 1000 | 
15 | CCOCCN1CCN(c2cc(C)cc(Nc3ncn(-c4cc(F)cc(F)c4)n3)c2)CC1C (stereo not shown) [Compound 1063, 1-(3,5-difluorophenyl)-N-[3-[4-(2-ethoxyethyl)-3-methyl-piperazin-1-yl]-5-methyl-phenyl]-1,2,4-triazol-3-amine] |  |  |  |  | fold induction at 1 µM [4]: 10 to 100; fold induction at 10 µM [4]: ≤ 1
16 | Cc1cc(Nc2ncn(-c3cccc(F)c3)n2)cc(C2CN(C3COC3)C2)c1 [Compound 36, 1-(3-fluorophenyl)-N-[3-methyl-5-[1-(oxetan-3-yl)azetidin-3-yl]phenyl]-1,2,4-triazol-3-amine] |  |  | 1000 to 10000 | ≤ 1 | 
17 | Cc1cc(NCC2CC2)cc(Nc2ncn(-c3cc(F)cc(F)c3)n2)c1 [Compound 942, N3-(cyclopropylmethyl)-N1-[1-(3,5-difluorophenyl)-1,2,4-triazol-3-yl]-5-methyl-benzene-1,3-diamine] |  |  |  |  | fold induction at 1 µM [4]: 1 to 10; fold induction at 10 µM [4]: ≤ 1
18 | CCC1COC(C)CN1CCNc1cc(C)cc(Nc2ncn(-c3cc(F)cc(F)c3)n2)c1 (stereo not shown) [Compound 974, N3-[1-(3,5-difluorophenyl)-1,2,4-triazol-3-yl]-N1-[2-(5-ethyl-2-methyl-morpholin-4-yl)ethyl]-5-methyl-benzene-1,3-diamine] |  |  |  |  | fold induction at 1 µM [4]: 10 to 100; fold induction at 10 µM [4]: ≤ 1
19 | Cc1cc(Nc2ncn(-c3cc(F)cc(NCCO)c3)n2)cc(N2CC(F)C2)c1 [Compound 852, 2-[3-fluoro-5-[3-[3-(3-fluoroazetidin-1-yl)-5-methyl-anilino]-1,2,4-triazol-1-yl]anilino]ethanol] |  |  |  |  | fold induction at 1 µM [4]: 1 to 10; fold induction at 10 µM [4]: ≤ 1
20 | Cc1cc(Nc2ncn(-c3cc(F)cc(F)c3)n2)cc(N2CC3(COC3)C2)c1 [Compound 171, 1-(3,5-difluorophenyl)-N-[3-methyl-5-(6-oxa-2-azaspiro[3.3]heptan-2-yl)phenyl]-1,2,4-triazol-3-amine] |  |  | 10 to 100 | 100 to 1000 | 
21 | N#Cc1cc(Nc2ncn(-c3cccnc3)n2)cc(N2CCOCC2)c1 [Compound 763, 3-morpholino-5-[[1-(3-pyridyl)-1,2,4-triazol-3-yl]amino]benzonitrile] | 10 to 100 | 10 to 100 |  |  | 
22 | Fc1cc(-n2cnc(Nc3cc(Cl)cc(N4CC(N5CCOCC5)C4)c3)n2)ccn1 [Compound 819, N-[3-chloro-5-(3-morpholinoazetidin-1-yl)phenyl]-1-(2-fluoro-4-pyridyl)-1,2,4-triazol-3-amine] |  |  |  |  | fold induction at 1 µM [4]: 10 to 100; fold induction at 10 µM [4]: 1 to 10
23 | Cc1cc(Nc2ncn(-c3cc(F)cc(F)c3)n2)cc(N2CCC(N3CCN(C)CC3)CC2)c1 [Compound 772, 1-(3,5-difluorophenyl)-N-[3-methyl-5-[4-(4-methylpiperazin-1-yl)-1-piperidyl]phenyl]-1,2,4-triazol-3-amine] | 1 to 10 | ≤ 1 |  |  | 
